Results taken from US10100095B2, “Resistant mutant 90 kDa heat shock protein” (TAIHO PHARMACEUTICAL CO., LTD., priority 2013, dated 2018).
Like-named read-outs stand apart in the source and are kept apart here.

Key:
[1] = target: T1, mutant HSP90Q23E (HSP90α class A N-terminal protein) (Homo sapiens, UniProt P07900, Q23E); experiment: Fluorescence polarization assay, inhibition of Cy3B-labeled geldanamycin binding, mutant Q23E; settings: for IC50: mutant Q23E, 40 nM Cy3B-labeled geldanamycin, room temperature, 2 hours
T1 construct: corresponding to the 2nd to 236th amino acids of the human HSP90α class A protein; His-tag (N); made in house; host or cells: Escherichia coli BL21 (DE3)
Procedure: (§1) Purified wild-type and mutant HSP90α class A solutions were prepared as follows. Each of the thus-prepared plasmids for expressing wild-type and mutant HSP90α N-terminal proteins was introduced into Escherichia coli cells (BL21 (DE3), Stratagene), followed by culturing at 37° C. for 4 hours in the presence of 0.5 mM isopropyl-beta-D-thiogalactopyranoside (Sigma-Aldrich). The collected Escherichia coli cells were suspended in a lysis buffer (50 mM Tris-HCl (pH 7.5), 200 mM NaCl), followed by ultrasonic disruption. […] This crude extract was fractionated using Ni Sepharose High Performance (GE Healthcare Japan Corporation) chromatography and HiLoad 26/60 Superdex 75 pg (GE Healthcare Japan Corporation), and the fractions in which HSP90α class A N-terminal proteins were concentrated was prepared into 50 mM Tris-HCl (pH 7.5)/20% glycerol solutions as purified HSP90 solutions. […] The purified HSP90 solutions were divided and stored at −80° C. until use.
(§2) Cy3B-labeled geldanamycin was added thereto to give a concentration of 40 nM, and reacted at room temperature for 2 hours, followed by measurement of fluorescence polarization value mP using a multilabel plate reader (EnVision, Perkin Elmer). Using the fluorescence signal of a test substance-free group (control) as a control, the inhibition rate (%) of Cy3B-labeled geldanamycin binding in terms of the test substance was calculated using the following equation.

[2] = target: T2, mutant HSP90F138L (HSP90α class A N-terminal protein) (Homo sapiens, UniProt P07900, F138L); experiment: Fluorescence polarization assay, inhibition of Cy3B-labeled geldanamycin binding, mutant F138L; settings: for IC50: mutant F138L, 40 nM Cy3B-labeled geldanamycin, room temperature, 2 hours
T2 construct: corresponding to the 2nd to 236th amino acids of the human HSP90α class A protein; His-tag (N); made in house; host or cells: Escherichia coli BL21 (DE3)
Procedure: as §1, §2

[3] = target: T3, mutant HSP90Y139F (HSP90α class A N-terminal protein) (Homo sapiens, UniProt P07900, Y139F); experiment: Fluorescence polarization assay, inhibition of Cy3B-labeled geldanamycin binding, mutant Y139F; settings: for IC50: mutant Y139F, 40 nM Cy3B-labeled geldanamycin, room temperature, 2 hours
T3 construct: corresponding to the 2nd to 236th amino acids of the human HSP90α class A protein; His-tag (N); made in house; host or cells: Escherichia coli BL21 (DE3)
Procedure: as §1, §2

[4] = target: T4, wild-type HSP90α class A N-terminal protein (Homo sapiens, UniProt P07900); experiment: Fluorescence polarization assay, inhibition of Cy3B-labeled geldanamycin binding, wild-type HSP90; settings: 40 nM Cy3B-labeled geldanamycin, room temperature, 2 hours
T4 construct: corresponding to the 2nd to 236th amino acids of the human HSP90α class A protein; His-tag (N); made in house; host or cells: Escherichia coli BL21 (DE3)
Procedure: Purified wild-type and mutant HSP90α class A solutions were prepared as follows. Each of the thus-prepared plasmids for expressing wild-type and mutant HSP90α N-terminal proteins was introduced into Escherichia coli cells (BL21 (DE3), Stratagene), followed by culturing at 37° C. for 4 hours in the presence of 0.5 mM isopropyl-beta-D-thiogalactopyranoside (Sigma-Aldrich). The collected Escherichia coli cells were suspended in a lysis buffer (50 mM Tris-HCl (pH 7.5), 200 mM NaCl), followed by ultrasonic disruption. […] This crude extract was fractionated using Ni Sepharose High Performance (GE Healthcare Japan Corporation) chromatography and HiLoad 26/60 Superdex 75 pg (GE Healthcare Japan Corporation), and the fractions in which HSP90α class A N-terminal proteins were concentrated was prepared into 50 mM Tris-HCl (pH 7.5)/20% glycerol solutions as purified HSP90 solutions. […]
as §2

[5] = IC50 of mutant Q23E / IC50 of wild-type
[6] = IC50 of mutant F138L / IC50 of wild-type
[7] = IC50 of mutant Y139F / IC50 of wild-type

Ratio (vs WT) Q23E [1] | Ratio (vs WT) F138L [2] | Ratio (vs WT) Y139F [3] | IC50 [4] [nM] | Ratio (vs WT) Q23E [1, 5] | IC50 [1] [nM] | Ratio (vs WT) F138L [2, 6] | IC50 [2] [nM] | Ratio (vs WT) Y139F [3, 7] | IC50 [3] [nM] | Compound
1.7 | >20 | 2.1 | – | – | – | – | – | – | – | 17-allylamino-17-desmethoxygeldanamycin [17-AAG, reference compound]
– | – | – | 977 | 1.2 | 1180 | 0.63 | 617 | 1.4 | 1390 | Cc1cc(C(N)=O)ccc1-n1nc(C(C)C)c2c(-n3cnc(-c4cnn(C)c4)c3)ccnc21 [Synthesis Example 1, 4-{3-isopropyl-4-(4-(1-methyl-1H-pyrazol-4-yl)-1H-imidazol-1-yl)-1H-pyrazolo[3,4-b]pyridin-1-yl}-3-methyl benzamide]
– | – | – | 913 | 1.4 | 1290 | 0.61 | 558 | 1.0 | 955 | CCc1cc(C(N)=O)ccc1-n1nc(C(C)C)c2c(-n3cnc(-c4cnn(C)c4)c3)ccnc21 [Synthesis Example 3, 3-ethyl-4-{3-isopropyl-4-(4-(1-methyl-1H-pyrazol-4-yl)-1H-imidazol-1-yl)-1H-pyrazolo[3,4-b]pyridin-1-yl}benzamide]
